The conditions of series [1]: i.m., 50 μl, various concentrations, after 7 days. The procedure: Paclitaxel (PTX) (Bristol-Myers Squibb, Princeton, N.J.), Doxorubicin (DOX) (Gensia, Irvine, Calif.), and Cisplatin (CIS) (Bristol-Myers Squibb) are diluted before injection. Cyclophosphamide (CTX) (Bristol-Myers Squibb) is diluted in sterile water before injection. PTX, CTX, Dox and CIS are injected intramuscularly (i.m.). (50 μl containing various concentrations of chemotherapeutic agents). Muscles are harvested and sectioned to perform histological analysis to assess tissue damage.

For series [2], the system named is melanoma. As to conditions: pretreatment with low dose cyclophosphamide before melanoma vaccine, after 2 months of immunization; cited from earlier work.
The test system of series [3] is MCP-1. Description: Paclitaxel induces MCP-1 in muscle tissue (RT-PCR). Format: in vivo, Mice. Conditions: i.m., muscle harvested 6 hours after injection. The procedure: Mice are injected intramuscularly (bilaterally) with varying doses of paclitaxel (100 μM to 0.01 μM). Doses of paclitaxel are prepared by 10-fold serial dilutions, in saline, of a 10 mM DMSO stock. The muscles are harvested, on dry ice, 6 hours following injection, and frozen at −80° C. RNA is isolated using TRIZOL reagent (Gibco) as per manufacturers specifications. Ten micrograms of total RNA is reverse transcribed using Superscript RT (Gibco), 500 ng oligodT primers (Gibco), and 250 ng Random Hexamer primers (Gibco) for 20 minutes at room temperature, followed by 2 hours at 42° C.
MCP-1 is amplified from 2 μl of reverse transcription reaction using Titanium PCR kit (Clontech). Amplification primers are as follows:
The PCR reaction is performed for 30 cycles using 100 pmole for each primer, with an annealing temperature of 68 degrees. The PCR products are analyzed on a 1.5% agarose gel, and have an expected size of 397 bps.

Series [4] has as its system B16 cells. Description: Melanine levels in B16 cells pretreated with paclitaxel. In kind it is cell-based. As to the method:
This unexpected observation lead to the immunological rationale for testing immune-modulating doses of chemotherapy in combination with an antigen. As described in Example II, paclitaxel increased the humoral response against ovalbumin. The testing of paclitaxel as improving a whole-cell vaccine in mice was performed as shown in Examples III and V. This principle is illustrated in FIG. 1. Sterilizing cancer cells with chemotherapeutic agents before immunization of the mice with a composition of cancer cells undergoing apoptosis and/or necrosis and chemotherapeutic agents protected the animals against a lethal tumor challenge. This was unexpected since chemotherapeutic agents are known to be toxic and to trigger systemic immunosuppression. Also, to have in one single composition a chemotherapeutic agent(s) and an antigen administered simultaneously simplifies the use of chemotherapeutic agents as potential vaccine adjuvants. The presence of the chemotherapeutic agent in the anti-cancer vaccine composition also renders moot or diminish the need to proceed to the inactivation by irradiation of the tumoral cells forming the anti-cancer vaccine before reinoculation. The drugs, especially paclitaxel, helps to raise an immune response by inducing a variety of genes known to be antigenic. […]

Series [5] concerns C2C12 cells. Put plainly: Paclitaxel toxicity on differentiated C2C12 cells. In kind it is cell-based. Conditions: various concentrations, even high concentration, non-dividing cells. As to the method: […] cells were plated in a 12-wells plate at 7×10^4 cells/ml/well in complete DMEM (10 FBS, 1% Strepto-pen, 1% Hepes) and incubated O/N at 37° C. under 5% CO2 atmosphere. Twenty-four hours later, normal DMEM was changed for DMEM containing 2% Horse serum, 1% Strepto-pen and 1% Hepes. The medium was then changed everyday with the complete DMEM 2% Horse serum. For an extra 7 days, complete DMEM 10% Horse serum was added to the cells. After about 1 week, all cells were differentiated and treated with various concentrations of paclitaxel. Even at a high concentration of paclitaxel, differentiated cells now forming elongated muscular fibers, were not affected by any treatment probably due to the non-dividing state of the cells. This observation support the fact that drugs can be injected in the muscle without necessarily causing damages or cell death.

Series [6] concerns ovalbumin. Description: Humoral response against ovalbumin (ELISA) after intramuscular immunization. Format: in vivo, Mice. As to conditions: 1 μg ovalbumin i.m. without adjuvant, 2 weeks. In general terms: In an ELISA, binding on a coated surface is turned into a signal by an enzyme label.
Procedure: The animals are injected intramuscularly into tibialis anterior muscles with 50 μl containing either 1 μg of ovalbumin formulated with or without paclitaxel at 10E^−2 molar. Mice are sacrificed at various time points to perform the ELISA (2 weeks post-immunization). Ovalbumin-specific antibody responses are quantified by enzyme-linked immunosorbent assay (ELISA). Microtiter plates are coated overnight with 1 μg per well of ovalbumin. Plates are then washed once with PBS-Tween 0.01% and blocked for 2 hours at 37° C. with PBS+1% BSA. The plates are then incubated with serial dilutions of mouse sera for 1 hour at 37° C. […] The data are expressed as the percentage of responding mice and as the mean titers of responding mice.

For the molecule `N.N.[Cl][Pt][Cl]` [Cisplatin], in series [1], the “infiltration of lymphocytes (histology of injected muscle)” value is on record as “mild to moderate” and the “tissue damage (histology of injected muscle)” value was “no sign of tissue damage”.

For the molecule `O=P1(N(CCCl)CCCl)NCCCO1` (stereo not drawn) [Cyclophosphamide], the “patients with augmented antibody and/or cellular immune responses to melanoma” value in series [2] is on record as 83%. For the same molecule, in series [1], the “infiltration of lymphocytes (histology of injected muscle)” value is “mild to moderate” and the “tissue damage (histology of injected muscle)” value is given as “no sign of tissue damage”.

For `COc1cccc2c1C(=O)c1c(O)c3c(c(O)c1C2=O)C[C@@](O)(C(=O)CO)C[C@@H]3O[C@H]1C[C@H](N)[C@H](O)[C@H](C)O1` [Doxorubicin], in series [1], the “infiltration of lymphocytes (histology of injected muscle)” value is given as “mild to moderate” and the “tissue damage (histology of injected muscle)” value is listed as “no sign of tissue damage”.

For the molecule `CC(=O)O[C@H]1C(=O)[C@@]2(C)[C@H]([C@H](OC(=O)c3ccccc3)[C@]3(O)C[C@H](OC(=O)[C@H](O)[C@@H](NC(=O)c4ccccc4)c4ccccc4)C(C)=C1C3(C)C)[C@]1(OC(C)=O)CO[C@@H]1C[C@@H]2O` [Paclitaxel], the “Fold-induction over GAPDH (MCP-1 RT-PCR)” value in series [3] (0.01 μM per injection) was 2 fold; in series [3] (1 μM per injection), 3 fold; in series [3] (100 μM per injection), 6 fold. For the same molecule, the “Melanine levels in B16 cells” value in series [4] is reported as “increases”. Further, the “infiltration of lymphocytes (histology of injected muscle)” value in series [1] is given as “mild to moderate”. The “tissue damage (histology of injected muscle)” value in series [1] is listed as “no sign of tissue damage”. Also, in series [5], the “effect on differentiated C2C12 cells (toxicity)” value is listed as “not affected”.

B1: Ovalbumin: model protein antigen injected without adjuvant (protein, UniProt P01012 2-386, looked up)
Ovalbumin: GSIGAASMEFCFDVFKELKVHHANENIFYCPIAIMSALAMVYLGAKDSTRTQINKVVRFDKLPGFGDSIEAQCGTSVNVHSSLRDILNQITKPNDVYSFSLASRLYAEERYPILPEYLQCVKELYRGGLEPINFQTAADQARELINSWVESQTNGIIRNVLQPSSVDSQTAMVLVNAIVFKGLWEKAFKDEDTQAMPFRVTEQESKPVQMMYQIGLFRVASMASEKMKILELPFASGTMSMLVLLPDEVSGLEQLESIINFEKLTEWTSSNVMEERKIKVYLPRMKMEEKYNLTSVLMAMGITDVFSSSANLSGISSAESLKISQAVHAAHAEINEAGREVVGSAEAGVDAASVSEEFRADHPFLFCIKHIATNAVLFFGRCVSP
Consider B1, for which, in series [6], the “% seroconversion” value is 20%.

These data come from US20060051354A1, “Chemotherapeutic agents as anti-cancer vaccine adjuvants and therapeutic methods thereof” (priority 2002, published 2006).
